# According to patent US20240018125A1, “CYCLIC ISOTHIOUREA DERIVATIVES AS CXCR4 MODULATORS” (ERMIUM THERAPEUTICS, priority 2020, published 2024):
# Counter-ions that a name gives are not always drawn.
# Test system: peripheral blood mononuclear cells (PBMCs) from healthy donors
# Assay: IFN production by R848-activated PBMCs, quantified with twINNE luciferase reporter cell line
# Type: cell-based, human
# Details: Homo sapiens, PBMC; read-out: IC50 of anti-inflammatory activity (IFN production by activated PBMCs)
# How it was run: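 Functional IFN was quantified by luciferase output from the twINNE ISRE-reporter line after 24 h on conditioned supernatants. Those supernatants came from human PBMCs (4.10^6/mL) pre-treated with compound and then stimulated for 24 h with 5 μg/mL resiquimod. IC50s were fitted by nonlinear variable-slope regression.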
row,Compound,IC50 [µM]
1,"C[C@@H](CSC1=NCc2cc(Cl)ccc2N1)N1CCCC1 [Example 166, (S)-6-chloro-2-((2-(pyrrolidin-1-yl)propyl)thio)-1,4-dihydroquinazoline dihydrochloride]",≤ 10
2,"Clc1cccc2c1CN=C(SCC1=CSC3=NC(Cc4ccccc4)CN13)N2 (stereo not drawn) [Example 118, 6-benzyl-3-(((5-chloro-1,4-dihydroquinazolin-2-yl)thio)methyl)-5,6-dihydroimidazo[2,1-b]thiazole dihydrochloride]",≤ 10
3,"Clc1cccc(C[C@H]2CN3C(CSC4=NCc5ccccc5N4)=CSC3=N2)c1 [Example 111, (S)-6-(3-chlorobenzyl)-3-(((1,4-dihydroquinazolin-2-yl)thio)methyl)-5,6-dihydroimidazo[2,1-b]thiazole dihydrochloride]",≤ 10
4,"c1ccc2c(c1)CN=C(SCCN1C[C@H]3C[C@@H]1CO3)N2 (stereo in doubt) [Example 146, (1R,4R)-5-(2-((1,4-dihydroquinazolin-2-yl)thio)ethyl)-2-oxa-5-azabicyclo[2.2.1]heptane dihydrochloride]",10 to 32
5,"Clc1ccc2c(c1)CN1C(CSC3=NCc4cc(Br)ccc4N3)=CSC1=N2 [Example 67, 3-(((6-bromo-1,4-dihydroquinazolin-2-yl)thio)methyl)-7-chloro-5H-thiazolo[2,3-b]quinazoline dihydrochloride]",10 to 32
6,"c1ccc(CC2CCN(CCSC3=NCc4ccccc4N3)C2)cc1 (stereo not drawn) [Example 154, 2-((2-(3-benzylpyrrolidin-1-yl)ethyl)thio)-1,4-dihydroquinazoline dihydrochloride]",> 32
7,"c1ccc2c(c1)CN=C(SCCCCN1CCCC1)NC2 [Example 171, 3-((4-(pyrrolidin-1-yl)butyl)thio)-2,5-dihydro-1H-benzo[e][1,3]diazepine dihydrochloride]",> 32
8,"C1=C(CSC2=NCc3ccccc3N2)N2CC(C3CCCCC3)N=C2S1 (stereo not drawn) [Example 15, 6-cyclohexyl-3-(((3,4-dihydroquinazolin-2-yl)thio)methyl)-5,6-dihydroimidazo[2,1-b]thiazole dihydrochloride]",≤ 10
9,"COc1ccc(CC2(C)CN3C(CSC4=NCc5ccccc5N4)=CSC3=N2)cc1 (stereo not drawn) [Example 46, 3-(((3,4-dihydroquinazolin-2-yl)thio)methyl)-6-(4-methoxybenzyl)-6-methyl-5,6-dihydroimidazo[2,1-b]thiazole dihydrochloride]",≤ 10
10,"O=C(CCCSC1=NCc2ccccc2N1)N1CCCC1 [Example 147, 4-((1,4-dihydroquinazolin-2-yl)thio)-1-(pyrrolidin-1-yl)butan-1-one hydrochloride]",> 32
11,"OC1(CSC2=NCc3ccccc3N2)CSC2=N[C@H](c3ccccc3)[C@@H](c3ccccc3)N21 (relative stereo) [Example 17, trans-3-(((3,4-dihydroquinazolin-2-yl)thio)methyl)-5,6-diphenyl-2,3,5,6-tetrahydroimidazo[2,1-b]thiazol-3-ol dihydrochloride]",> 32
12,"c1ccc(CC2CN=C(SCCN3CCCC3)N2)cc1 (stereo not drawn) [Example 54, 5-benzyl-2-((2-(pyrrolidin-1-yl)ethyl)thio)-4,5-dihydro-1H-imidazole dihydrochloride]",10 to 32
13,"Clc1ccc2c(c1)CN=C(SCCN1CCCC1)N2 [Example 59, 6-chloro-2-((2-(pyrrolidin-1-yl)ethyl)thio)-1,4-dihydroquinazoline dihydrochloride]",≤ 10
14,"CC1(C)N=C(SCC2=CSC3=NCc4ccccc4CN23)Nc2ccccc21 [Example 21, 3-(((4,4-dimethyl-1,4-dihydroquinazolin-2-yl)thio)methyl)-5,10-dihydrobenzo[e]thiazolo[3,2-a][1,3]diazepine dihydrochloride]",≤ 10

# Test system: not given
# Assay: not given
# Details: not given
row,Compound,melting point [°C]
1,"CC1(C)N=C(SCC2=CSC3=NCc4ccccc4CN23)Nc2ccccc21 (as salt: hydrochloride) [Example 21, 3-(((4,4-dimethyl-1,4-dihydroquinazolin-2-yl)thio)methyl)-5,10-dihydrobenzo[e]thiazolo[3,2-a][1,3]diazepine dihydrochloride]",> 250
2,"C1=C(CSC2=NCc3ccccc3N2)N2Cc3ccccc3N=C2S1 (as salt: hydrochloride) [Example 12, 3-(((1,4-dihydroquinazolin-2-yl)thio)methyl)-5H-thiazolo[2,3-b]quinazoline dihydrochloride]",> 250
3,"C1=C(CSC2=N[C@@H](c3ccccc3)[C@H](c3ccccc3)N2)N2Cc3ccccc3CN=C2S1 (as salt: hydrochloride) [Example 24, 3-((((4S,5S)-4,5-diphenyl-4,5-dihydro-1H-imidazol-2-yl)thio)methyl)-5,10-dihydrobenzo[e]thiazolo[3,2-a][1,3]diazepine dihydrochloride]",178 to 185
4,"Fc1cccc2c1CN1C(CSC3=NCc4ccccc4N3)=CSC1=N2 (as salt: hydrochloride) [Example 18, 3-(((3,4-dihydroquinazolin-2-yl)thio)methyl)-6-fluoro-5H-thiazolo[2,3-b]quinazoline dihydrochloride]",193 to 203

# Other lines, results leading:
row,melting point [°C],Compound
1,156 to 168,"COc1ccc(CC2(C)CN3C(CSC4=NCc5ccccc5N4)=CSC3=N2)cc1 (stereo not drawn) (as salt: hydrochloride) [Example 46, 3-(((3,4-dihydroquinazolin-2-yl)thio)methyl)-6-(4-methoxybenzyl)-6-methyl-5,6-dihydroimidazo[2,1-b]thiazole dihydrochloride]"
2,40 to 44,"CCCCN1Cc2ccccc2N=C1SCC1=CSC2=NC(Cc3ccccc3)CN12 (stereo not drawn) (as salt: hydrochloride) [Example 93, 6-benzyl-3-(((3-butyl-3,4-dihydroquinazolin-2-yl)thio)methyl)-5,6-dihydroimidazo[2,1-b]thiazole dihydrochloride]"
3,195 to 200,"CC1(c2ccccc2)CN=C(SCC2=CSC3=NCc4ccccc4CN23)N1 (stereo not drawn) (as salt: hydrochloride) [Example 30, 3-(((5-methyl-5-phenyl-4,5-dihydro-1H-imidazol-2-yl)thio)methyl)-5,10-dihydrobenzo[e]thiazolo[3,2-a][1,3]diazepine dihydrochloride]"
4,136 to 142,"C1=C(CSC2=NCc3ccccc3N2)N2CC(CCc3ccccc3)N=C2S1 (stereo not drawn) (as salt: hydrochloride) [Example 126, 3-(((1,4-dihydroquinazolin-2-yl)thio)methyl)-6-phenethyl-5,6-dihydroimidazo[2,1-b]thiazole dihydrochloride]"
5,184 to 190,"C1=C(CSC2=NCc3ccccc3N2)N2C(=Nc3ccccc3C2c2ccccc2)S1 (stereo not drawn) (as salt: hydrochloride) [Example 43, 3-(((3,4-dihydroquinazolin-2-yl)thio)methyl)-5-phenyl-5H-thiazolo[2,3-b]quinazoline dihydrochloride]"
6,50 to 60,"c1ccc(CC2CN=C(SCCN3CCCCC3)N2)cc1 (stereo not drawn) (as salt: hydrochloride) [Example 50, 1-(2-((5-benzyl-4,5-dihydro-1H-imidazol-2-yl)thio)ethyl)piperidine dihydrochloride]"
7,248 to 249,"C1=C(CSC2=NCc3ccccc3N2)N2CCc3ccccc3N=C2S1 (as salt: hydrochloride) [Example 35, 3-(((3,4-dihydroquinazolin-2-yl)thio)methyl)-5,6-dihydrobenzo[d]thiazolo[3,2-a][1,3]diazepine dihydrochloride]"
8,136 to 145,"Cc1cccc(CC2CN3C(CSC4=NCc5ccccc5N4)=CSC3=N2)c1 (stereo not drawn) (as salt: hydrochloride) [Example 112, 3-(((1,4-dihydroquinazolin-2-yl)thio)methyl)-6-(3-methylbenzyl)-5,6-dihydroimidazo[2,1-b]thiazole dihydrochloride]"
9,> 250,"C1=C(CSC2=NCCc3ccccc3N2)N2Cc3ccccc3CN=C2S1 (as salt: hydrochloride) [Example 25, 3-(((4,5-dihydro-1H-benzo[d][1,3]diazepin-2-yl)thio)methyl)-5,10-dihydrobenzo[e]thiazolo[3,2-a][1,3]diazepine dihydrochloride]"
10,> 250,"C1=C(CSC2=N[C@@H]3CCCC[C@H]3N2)N2Cc3ccccc3N=C2S1 (as salt: hydrochloride) [Example 32, 3-((((3aR,7aR)-3a,4,5,6,7,7a-hexahydro-1H-benzo[d]imidazol-2-yl)thio)methyl)-5H-thiazolo[2,3-b]quinazoline dihydrochloride]"
11,180 to 190,"C1=C(CSC2=NCc3ccccc3N2)N2Cc3cccnc3N=C2S1 (as salt: hydrochloride) [Example 28, 3-(((3,4-dihydroquinazolin-2-yl)thio)methyl)-5H-pyrido[2,3-d]thiazolo[3,2-a]pyrimidine trihydrochloride]"
12,78 to 85,"c1ccc2c(c1)CN=C(SCCCCN1CCCC1)N2 (as salt: hydrochloride) [Example 137, 2-((4-(pyrrolidin-1-yl)butyl)thio)-1,4-dihydroquinazoline dihydrochloride]"
13,206 to 212,"CCCCN1CCN=C1SCC1=CSC2=NCc3ccccc3CN12 (as salt: hydrochloride) [Example 37, 3-(((1-butyl-4,5-dihydro-1H-imidazol-2-yl)thio)methyl)-5,10-dihydrobenzo[e]thiazolo[3,2-a][1,3]diazepine dihydrochloride]"
14,70 to 80,"CN1CCCC1CSC1=NCC(Cc2ccccc2)N1 (stereo not drawn) (as salt: hydrochloride) [Example 53, 5-benzyl-2-(((1-methylpyrrolidin-2-yl)methyl)thio)-4,5-dihydro-1H-imidazole dihydrochloride]"
15,> 250,Cl.c1ccc2c(c1)CN=C(SCc1csc3nc4ccccc4n13)N2 [Example 96]
